# Measured values as given in patent publication US12685725B2, “Pridopidine for the treatment of mitochondrial-associated diseases and disorders and endoplasmic reticulum (ER) stress” (PRILENIA NEUROTHERAPEUTICS LTD., priority 2019, dated 2026).
# Read-outs that look alike come from different tables or passages of the source.
# Columns and labels:
# [1] = system: YAC128 striatal neurons; settings: 1 μM
# Experimental: Briefly, plasmid was diluted in TE (in mM: 1 Tris-HCl pH 7.3, 1 mM EDTA), followed by the addition of CaCl2 (in mM: 2.5 CaCl2 in 10 HEPES, pH 7.2). The DNA solution was carefully added to 2×HEBS (in mM: 12 dextrose, 50 HEPES, 10 KCl, 280 NaCl and 1.5 Na2HPO4·2H2O, pH 7.2) while bubbling air through the solution. The mixture was then incubated for 25 min at room temperature. The precipitates were added dropwise to the coverslips in Neurobasal medium and incubated for 80 minutes at 37° C. The DNA-Ca^2+-phosphate precipitates were dissolved with freshly-made dissolution medium (Neurobasal medium with 20 mM HEPES, pH 6.8) and incubated for 7 min at room temperature. The transfected neurons were then washed with Neurobasal medium and transferred back to their original dishes containing conditioned culture medium until DIV12.
# [2] = system: WT and YAC128 cortical and striatal neurons; settings: 24 h
# Experimental: (§1) Mitochondrial membrane potential (Δψm) was assessed in cortical and striatal neurons using the positively changed fluorescent probe TMRM (tetramethylrhodamine methyl ester) (Thermo Fisher Sci., catalog no: T668) and in cortical/striatal co-cultures and lymphoblasts using an equivalent probe, TMRE (tetramethylrhodamine ethyl ester) (Abcam, catalog no. ab113852).
# Under these conditions, retention of TMRM by mitochondria was studied to estimate changes in Δψm. […] TMRM release was calculated based in the differences in fluorescence before and after addition of oligomycin/FCCP.
# [3] = system: HD human lymphoblasts; settings: pridopidine 24 h prior to H2O2 6 h, p=0.0016
# Experimental: Cell viability was assessed on lymphoblasts using the MTS assay, a measure of mitochondrial function and cell survival. The assay was performed according to the manufacturer's instructions (Promega, catalog no. G1112). In the day of experiment, MTS reagent was added to the culture media (1:10) and incubated at 37° C. for 4 hours. Then, lymphoblasts were centrifuged at 145×g for 5 min and media was collected. The absorbance of the formazan dye produced by viable cells was quantified in the medium at OD=490 nm.
# [4] = system: HD human lymphoblasts; settings: 24 h pre-treatment
# Experimental: The lymphoblasts were passaged 1:3 every five to six days. For conducting experiments, the lymphoblasts were collected and centrifuged at 145×g for 5 min. The cell pellet was resuspended in fresh growth medium. Lymphoblasts between passage number 5 and 20 were used in each experiment.
# as §1
# TMRE assay: Primary neurons and lymphoblasts in suspension were cultured in 6-well plates.
# [5] = system: YAC128 mice; settings: 30 mg/kg/day oral gavage 45 days, vs vehicle-treated HD mice, p=0.0270
# Experimental: 1.5-month-old WT and hemizygous YAC128 mice (males and females in equal proportion) were divided into four groups. […] Mice were divided 4 animals per cage enriched in corn-husk nesting material and paper rolls, each cage representing one individual experiment, for a total of 9 animals per group. Pridopidine was dissolved in deionized sterile water. Animals were weighed every week and the volume of treatment adjusted accordingly. Mice were behaviorally tested in rotarod immediately before commencing treatment and on the day before finishing treatment. Tests were conducted blindly at a set time during the day. Mice were sacrificed 24 h after administration of the final pridopidine dose, and mitochondria isolated from the striatum.
# [6] = system: WT and YAC128 cortical/striatal co-cultures; settings: 24 h
# Experimental: Oxygen consumption rate (OCR) in WT and hemizygous YAC128 cortical/striatal co-cultures and NSCs was measured using Seahorse XFe-24/96 flux analyzers (Seahorse Bioscience, Billerica, MA, USA) following the manufacturer's instructions. […] Pridopidine (0.1, 1 and/or 5 μM) was added, when indicated in the graphs, 24 h before the experiment. The sensor cartridge plate was incubated with immersed sensors in a non-CO2 incubator at 37° C. for ~16 h (overnight). […] The cell medium was aspirated gently to avoid disturbing cell monolayers. […] Accordingly, mitochondrial basal respiration, maximal respiration and ATP production was automatically calculated and recorded by the Seahorse software. Data was normalized for protein levels.
smiles,measurement,setting,value
"CCCN1CCC(c2cccc(S(C)(=O)=O)c2)CC1 [Pridopidine, 4-[3-(methylsulfonyl)phenyl]-1-propyl-piperidine]",velocity of motile mitochondria,"[1]; YAC128 neurons, p<0.05",This decrease was ameliorated
same,proportion of motile mitochondria,"[1]; YAC128 striatal neurons, p=0.0286",significantly increases the proportion of motile mitochondria
same,"mitochondrial membrane potential (MMP), TMRM release","[2]; WT striatal neurons, 1 μM, p=0.0013",also increases MMP
same,"mitochondrial membrane potential (MMP), TMRM release","[2]; Y128 high mHTT, cortical neurons, 0.1 μM, p=0.015",significantly increases MMP
same,"mitochondrial membrane potential (MMP), TMRM release","[2]; Y128 high mHTT, cortical neurons, 1 μM, p=0.0201",significantly increases MMP
same,"mitochondrial membrane potential (MMP), TMRM release","[2]; Y128 high mHTT, striatal neurons, 0.1 μM, p=0.0407",significantly increases MMP
same,"mitochondrial membrane potential (MMP), TMRM release","[2]; Y128 high mHTT, striatal neurons, 1 μM, p=0.0017",significantly increases MMP
same,"mitochondrial membrane potential (MMP), TMRM release","[2]; Y128 low mHTT, cortical neurons, 0.1 μM, p=0.0008",significantly increases MMP
same,"mitochondrial membrane potential (MMP), TMRM release","[2]; Y128 low mHTT, cortical neurons, 1 μM, p=0.0303",significantly increases MMP
same,"mitochondrial membrane potential (MMP), TMRM release","[2]; Y128 low mHTT, striatal neurons, 0.1 μM, p=0.0274",significantly increases MMP
same,increase in cell viability,[3],approximately 50%
same,MMP (TMRE signal) after H2O2,"[4]; HD human lymphoblasts, 5 μM, then H2O2 6 h",significant rescue effect
same,restoration of membrane potential,"[4]; human lymphoblasts, 10 μM, then 0.1 mM H2O2 6 h, p=0.1389",less efficacious and shows less restoration of membrane potential
same,concentration of maximal effect on MMP (bell-shaped dose-response),"[4]; human lymphoblasts, then 0.1 mM H2O2 6 h",5 µM
same,"motor performance, latency to fall in accelerated rotarod",[5],significant motor improvement
same,maximal respiration,"[6]; HD Y128 corticostriatal neurons, 1 μM, p=0.0061",rescues maximal
same,maximal respiration,"[6]; HD Y128 corticostriatal neurons, 5 μM, p=0.002",rescues maximal
same,ATP production,"[6]; HD Y128 corticostriatal neurons, 5 μM, p=0.0358",rescues
same,basal respiration,"[6]; HD Y128 corticostriatal neurons, 1 and 5 μM",non-significant trend towards increasing basal respiration
same,maximal respiration,"[6]; WT cells, 1 and 5 μM",increases maximal respiration in both WT and Y128 cells
same,mitochondrial basal respiration,"[6]; WT neurons, 1 μM, p=0.0058",enhances mitochondrial basal respiration
same,mitochondrial basal respiration,"[6]; WT neurons, 5 μM, p=0.0016",enhances mitochondrial basal respiration
same,ATP production,"[6]; WT neurons, 5 μM, p=0.02",enhances
